Measured values published in patent publication US11331327B2, “Antibacterial use of halogenated salicylanilides” (UNION therapeutics A/S, priority 2014, dated 2022).
≈ marks a conversion by molar mass, not a printed value.

Test system: S. aureus clinical isolates and S. aureus ATCC 29213
Assay: MIC assay according to CLSI criteria, Example 2, S. aureus strains
Type: cell-based, Staphylococcus aureus
Conditions: Staphylococcus aureus
Procedure, shortened: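 Wells received roughly 5×10^5 S. aureus cells taken in exponential growth, in cation-adjusted MH broth. Plates held aerobically at 37° C for 18 hours.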

## C=C[C@]1(C)C[C@@H](OC(=O)CS[C@@H]2C[C@H]3CC[C@@H](C2)N3C)[C@]2(C)[C@H](C)CC[C@]3(CCC(=O)[C@H]32)[C@@H](C)[C@@H]1O [Retapamulin]
ATCC 29213 / MRSA, strain MRSA 15
  MIC: 0.06 µg/mL (≈ 0.116 µM)
ATCC 29213 / MRSA, strain MRSA 16
  MIC: 0.06 µg/mL (≈ 0.116 µM)
ATCC 29213 / MRSA, strain MRSA 17
  MIC: 0.03 µg/mL (≈ 0.0579 µM)
ATCC 29213 / MRSA, strain MRSA 18
  MIC: 0.06 µg/mL (≈ 0.116 µM)
ATCC 29213 / MRSA, strain MRSA 19
  MIC: 0.03 µg/mL (≈ 0.0579 µM)
ATCC 29213 / MRSA, strain MRSA 20
  MIC: 0.06 µg/mL (≈ 0.116 µM)
ATCC 29213 / MRSA, strain MRSA 21
  MIC: 0.125 µg/mL (≈ 0.241 µM)
ATCC 29213 / MRSA, strain MRSA 22
  MIC: 0.06 µg/mL (≈ 0.116 µM)
ATCC 29213 / MRSA, strain MRSA 23
  MIC: 0.06 µg/mL (≈ 0.116 µM)
ATCC 29213 / MRSA, strain MRSA 24
  MIC: 0.06 µg/mL (≈ 0.116 µM)
ATCC 29213 / MRSA, strain MRSA 25
  MIC: 0.06 µg/mL (≈ 0.116 µM)
ATCC 29213 / MRSA, strain MRSA 26
  MIC: 0.06 µg/mL (≈ 0.116 µM)
ATCC 29213 / MRSA, strain MRSA 27
  MIC: 0.06 µg/mL (≈ 0.116 µM)
ATCC 29213 / MRSA, strain MRSA 27b
  MIC: 0.02 µg/mL (≈ 0.0386 µM)
ATCC 29213 / MRSA, strain MRSA 28
  MIC: 0.03 µg/mL (≈ 0.0579 µM)
ATCC 29213 / MRSA, strain MRSA 29
  MIC: 0.06 µg/mL (≈ 0.116 µM)
ATCC 29213 / MRSA, strain MRSA 30
  MIC: 0.03 µg/mL (≈ 0.0579 µM)
ATCC 29213 / MRSA, strain MRSA 31
  MIC: 16 µg/mL (≈ 30.9 µM)
ATCC 29213 / MRSA, strain MRSA 32
  MIC: 0.06 µg/mL (≈ 0.116 µM)
ATCC 29213 / MRSA, strain MRSA 33
  MIC: 0.06 µg/mL (≈ 0.116 µM)
ATCC 29213 / MRSA, strain MRSA 34
  MIC: 0.06 µg/mL (≈ 0.116 µM)
ATCC 29213 / MRSA, strain MRSA 35
  MIC: 0.03 µg/mL (≈ 0.0579 µM)
ATCC 29213 / MRSA, strain MRSA 36
  MIC: 0.06 µg/mL (≈ 0.116 µM)
ATCC 29213 / MRSA, strain MRSA 37
  MIC: 0.06 µg/mL (≈ 0.116 µM)
ATCC 29213 / MRSA, strain MRSA 38
  MIC: 0.06 µg/mL (≈ 0.116 µM)
ATCC 29213 / MRSA, strain MRSA 39
  MIC: 0.06 µg/mL (≈ 0.116 µM)
ATCC 29213 / MRSA, strain MRSA 40
  MIC: 0.03 µg/mL (≈ 0.0579 µM)
ATCC 29213 / MRSA, strain MRSA 41
  MIC: 0.02 µg/mL (≈ 0.0386 µM)
ATCC 29213 / MRSA, strain MRSA 42
  MIC: 0.06 µg/mL (≈ 0.116 µM)
ATCC 29213 / MRSA, strain MRSA 43
  MIC: 0.06 µg/mL (≈ 0.116 µM)
ATCC 29213 / MRSA, strain MRSA 44
  MIC: 0.02 µg/mL (≈ 0.0386 µM)
ATCC 29213 / MRSA, strain MRSA 45
  MIC: 0.02 µg/mL (≈ 0.0386 µM)
ATCC 29213 / MRSA, strain MRSA 46
  MIC: 0.02 µg/mL (≈ 0.0386 µM)
ATCC 29213 / MRSA, strain MRSA 47
  MIC: 0.02 µg/mL (≈ 0.0386 µM)
ATCC 29213 / MRSA, strain MRSA 48
  MIC: 0.02 µg/mL (≈ 0.0386 µM)
ATCC 29213 / MRSA, strain MRSA 49
  MIC: 0.02 µg/mL (≈ 0.0386 µM)
ATCC 29213 / MRSA, strain MRSA 50
  MIC: 0.02 µg/mL (≈ 0.0386 µM)
ATCC 29213 / MRSA, strain MRSA 51
  MIC: 0.03 µg/mL (≈ 0.0579 µM)
ATCC 29213 / MRSA, strain MRSA 52
  MIC: 0.02 µg/mL (≈ 0.0386 µM)
ATCC 29213 / MRSA, strain MRSA 53
  MIC: 0.03 µg/mL (≈ 0.0579 µM)
ATCC 29213 / MRSA, strain MRSA 54
  MIC: 0.03 µg/mL (≈ 0.0579 µM)
ATCC 29213 / MRSA, strain MRSA 55
  MIC: 0.02 µg/mL (≈ 0.0386 µM)
ATCC 29213 / MRSA, strain MRSA 56
  MIC: < 0.01 µg/mL
ATCC 29213 / MRSA, strain MRSA 57
  MIC: 0.02 µg/mL (≈ 0.0386 µM)
ATCC 29213 / MRSA, strain MRSA 58
  MIC: 0.02 µg/mL (≈ 0.0386 µM)
ATCC 29213 / MRSA, strain MRSA 59
  MIC: 0.02 µg/mL (≈ 0.0386 µM)
ATCC 29213 / MRSA, strain MRSA 60
  MIC: 0.02 µg/mL (≈ 0.0386 µM)
ATCC 29213 / MRSA, strain MRSA 61
  MIC: 0.02 µg/mL (≈ 0.0386 µM)
ATCC 29213 / MRSA, strain MRSA 62
  MIC: 0.02 µg/mL (≈ 0.0386 µM)
ATCC 29213 / MRSA, strain MRSA 63
  MIC: 0.02 µg/mL (≈ 0.0386 µM)
ATCC 29213 / MRSA, strain MRSA 64
  MIC: 0.02 µg/mL (≈ 0.0386 µM)
ATCC 29213 / MRSA, strain MRSA 65
  MIC: 0.02 µg/mL (≈ 0.0386 µM)
ATCC 29213 / MRSA, strain MRSA 66
  MIC: 0.02 µg/mL (≈ 0.0386 µM)
ATCC 29213 / MRSA, strain MRSA 67
  MIC: 0.02 µg/mL (≈ 0.0386 µM)
ATCC 29213 / MRSA, strain MRSA 68
  MIC: 0.02 µg/mL (≈ 0.0386 µM)
ATCC 29213 / MRSA, strain MRSA 69
  MIC: < 0.01 µg/mL
ATCC 29213 / MRSA, strain MRSA 70
  MIC: 0.02 µg/mL (≈ 0.0386 µM)
ATCC 29213 / MRSA, strain MRSA 71
  MIC: < 0.01 µg/mL
ATCC 29213 / MRSA, strain MRSA 72
  MIC: 0.03 µg/mL (≈ 0.0579 µM)
ATCC 29213 / MRSA, strain MRSA 73
  MIC: 0.03 µg/mL (≈ 0.0579 µM)
ATCC 29213 / MRSA, strain MRSA 74
  MIC: 0.03 µg/mL (≈ 0.0579 µM)
ATCC 29213 / MRSA, strain MRSA 75
  MIC: 0.03 µg/mL (≈ 0.0579 µM)
ATCC 29213 / MRSA, strain MRSA 76
  MIC: 0.03 µg/mL (≈ 0.0579 µM)
ATCC 29213 / MRSA, strain MRSA 77
  MIC: 0.03 µg/mL (≈ 0.0579 µM)
ATCC 29213 / MRSA, strain MRSA 78
  MIC: 0.03 µg/mL (≈ 0.0579 µM)
ATCC 29213 / MRSA, strain MRSA 79
  MIC: < 0.01 µg/mL
ATCC 29213 / MRSA, strain MRSA 80
  MIC: 0.02 µg/mL (≈ 0.0386 µM)
ATCC 29213 / MRSA, strain MRSA 81
  MIC: 0.03 µg/mL (≈ 0.0579 µM)
ATCC 29213 / MRSA, strain MRSA 82
  MIC: 0.03 µg/mL (≈ 0.0579 µM)
ATCC 29213 / MRSA, strain MRSA 83
  MIC: 0.03 µg/mL (≈ 0.0579 µM)
ATCC 29213 / MRSA, strain MRSA 84
  MIC: 0.03 µg/mL (≈ 0.0579 µM)
ATCC 29213 / MRSA, strain MRSA 85
  MIC: 0.03 µg/mL (≈ 0.0579 µM)
ATCC 29213 / MRSA, strain MRSA 86
  MIC: 0.03 µg/mL (≈ 0.0579 µM)
ATCC 29213 / MRSA, strain MRSA 87
  MIC: 0.02 µg/mL (≈ 0.0386 µM)
ATCC 29213 / MRSA, strain MRSA 88
  MIC: 0.03 µg/mL (≈ 0.0579 µM)
ATCC 29213 / MRSA, strain MRSA 89
  MIC: 0.02 µg/mL (≈ 0.0386 µM)
ATCC 29213 / MRSA, strain MRSA 90
  MIC: 0.06 µg/mL (≈ 0.116 µM)
ATCC 29213 / MRSA, strain MRSA 91
  MIC: 0.06 µg/mL (≈ 0.116 µM)
ATCC 29213 / MRSA, strain MRSA 92
  MIC: 0.06 µg/mL (≈ 0.116 µM)
ATCC 29213 / MRSA, strain MRSA 93
  MIC: 0.02 µg/mL (≈ 0.0386 µM)
ATCC 29213 / MRSA, strain MRSA 94
  MIC: 0.03 µg/mL (≈ 0.0579 µM)
ATCC 29213 / MRSA, strain MRSA 95
  MIC: 0.03 µg/mL (≈ 0.0579 µM)
ATCC 29213 / MRSA, strain MRSA 96
  MIC: 0.03 µg/mL (≈ 0.0579 µM)
ATCC 29213 / MRSA, strain MRSA 97
  MIC: 0.03 µg/mL (≈ 0.0579 µM)
ATCC 29213 / MRSA, strain MRSA 98
  MIC: 0.03 µg/mL (≈ 0.0579 µM)
ATCC 29213 / MRSA, strain MRSA 99
  MIC: 0.03 µg/mL (≈ 0.0579 µM)
ATCC 29213 / MRSA, strain MRSA 100
  MIC: 1 µg/mL (≈ 1.93 µM)
ATCC 29213 / MRSA, strain MRSA 101
  MIC: 0.03 µg/mL (≈ 0.0579 µM)
ATCC 29213 / MRSA, strain MRSA 102
  MIC: 0.03 µg/mL (≈ 0.0579 µM)
ATCC 29213 / MRSA, strain MRSA 103
  MIC: 0.03 µg/mL (≈ 0.0579 µM)
ATCC 29213 / MRSA, strain MRSA 104
  MIC: 0.03 µg/mL (≈ 0.0579 µM)
ATCC 29213 / MRSA, strain MRSA 105
  MIC: 0.03 µg/mL (≈ 0.0579 µM)
ATCC 29213 / MRSA, strain MRSA 106
  MIC: 0.06 µg/mL (≈ 0.116 µM)
ATCC 29213 / MRSA, strain MRSA 107
  MIC: 0.06 µg/mL (≈ 0.116 µM)
ATCC 29213 / MRSA, strain MRSA 108
  MIC: 0.03 µg/mL (≈ 0.0579 µM)
ATCC 29213 / MRSA, strain MRSA 109
  MIC: 0.03 µg/mL (≈ 0.0579 µM)
ATCC 29213 / MRSA, strain MRSA 110
  MIC: 0.03 µg/mL (≈ 0.0579 µM)
ATCC 29213 / MRSA, strain MRSA 111
  MIC: 0.03 µg/mL (≈ 0.0579 µM)
ATCC 29213 / MRSA, strain MRSA 112
  MIC: 0.03 µg/mL (≈ 0.0579 µM)
ATCC 29213 / MRSA, strain MRSA 113
  MIC: 0.03 µg/mL (≈ 0.0579 µM)
ATCC 29213 / MSSA, strain MSSA 01
  MIC: 0.03 µg/mL (≈ 0.0579 µM)
ATCC 29213 / MSSA, strain MSSA 02
  MIC: 0.03 µg/mL (≈ 0.0579 µM)
ATCC 29213 / NEWMAN, strain Newman
  MIC: 0.03 µg/mL (≈ 0.0579 µM)
